Test results as given in patent US20040030131A1, “Pharmaceutical compounds” (priority 2000, published 2004).

melting point | SMILES
204.5 to 206.7 °C | CNCC1=C(c2ccc3scc(C)c3c2)C2CCC(C1)C2.Cl (stereo not shown)
179.5 to 181.6 °C | Cc1cc2cc(C3=C(CN(C)C)C4CCC3C4)ccc2s1.Cl (racemic)
207.4 to 211.1 °C | CN(C)CC1=C(c2cc3cc(F)ccc3s2)C2CCC(C1)C2.Cl (racemic)
73.5 to 76.9 °C | CN(C)CC1=C(c2cccc3sccc23)C2CCC1C2 (racemic) [Example 15, (+/−)-((3-(Benzo[b]thiophen-4-yl)bicyclo[2.2.1]-hept-2-en-2-yl)methyl)dimethylamine]
232 to 235 °C | COc1cccc2cc(C3=C(CN(C)C)C4CCC3C4)sc12.Cl (racemic)
57.8 °C | CN(C)CC1=C(c2ccc3sccc3c2)C2CCC(C1)C2.Cl (stereo not shown)
239 to 242 °C | COc1cccc2sc(C3=C(CN(C)C)C4CCC3C4)cc12.Cl (racemic)
